Assay results published in US20020115724A1, “Methods and agents for inhibiting protein aging” (priority 1985, published 2002).
Structures can show the parent of a compound that is named as a salt.

Experiments:
Laminin B1 mRNA = details: diabetic rats; cited from earlier work
gelatin (collagen) = experiment: Protein trapping: radioiodinated albumin bound to gelatin (collagen) agarose beads with glucose-6-phosphate; format: biochemical; details: agent 200 mN, 400 mN glucose-6-phosphate, two weeks, 37° C.
Source text: To more precisely measure the effect of the agents on the inhibition of protein crosslinking, an assay system was devised to measure the extent of in vitro binding of a soluble protein to an insoluble protein. This assay system mimics the events which occur in tissues in which serum proteins become bound to proteins in extravascular matrix and which lead to accumulation of protein and narrowing of vessel lumina in several other tissues. These events in vivo give rise to kidney disease and atherosclerotic disease, and lead to the pathologies associated with diabetes and aging.
To measure protein trapping (i.e., binding or accumulation), gelatin (collagen) was coupled to activated agarose beads (Affigel 10, Bio-Red Laboratories) by routine methods. After coupling, all remaining active sites on the beads were quenched by reaction with glycine ethyl ester.
The beads were incubated for two weeks with bovine serum albumin and 400 mN glucose-6-phosphate, a more reactive form of glucose which forms early glycosylation products with proteins more rapidly than does glucose. […] The bovine serum albumin was radioiodinated so that the amount which became bound to the beads could be measured. […]
After a two-week incubation of the reaction mixtures at 37° C., the beads were washed extensively with chaotropic agents and the covalently bound radioactivity was determined. […]

normal and diabetic rats [1] = experiment: Cross-linking of lipoprotein to aorta collagen, ELISA for apolipoprotein-B; format: in vivo, rat; details: 25 mg/kg daily i.p., 16 weeks
Description: (§1) The experiment consisted of giving both normal and diabetic rats daily intraperitoneal doses of the agent aminoguanidine hydrochloride at a dose of 25 mg per kilogram of body weight, for a period of 16 weeks. […] Diabetes was induced prior to drug therapy with a single dose of streptozotocin. Control animals, both diabetic and normal, received no drug.
Aorta samples from the same group of animals described in Example IV above, were subjected to analysis for cross-linking of lipoprotein to collagen, using an enzyme immunoassay. A standard ELISA procedure was employed, using antiserum to rat apoliproprotein-B raised in rabbits, peroxidase-labeled anti-rabbit antibody, and standard chromogenic reagents to detect quantity of antibody bound.

normal and diabetic rats [2] = experiment: IgG bound to glomerular basement membranes, enzyme immunoassay; format: in vivo, rat; details: 25 mg/kg daily intraperitoneal, 16 weeks
Description: To measure the level of advanced glycosylation end products in vivo, the kidneys of rats were examined for serum proteins which had become attached to glomerular basement membranes. This was determined to be a good model in which to study this process as it is known that significant kidney pathology occurs in untreated diabetes as a result of the buildup of extravasated plasma protein in the extravascular matrix in this organ.
as §1
At the end of the agent therapy, animals were sacrificed and the kidneys were removed. Each organ was removed from its capsule and the medulla was removed. […]
After overnight incubation to allow the antibody to bind to any IgG crosslinked to the glomerular basement membranes, the membranes were pelleted by centrifugation at 3200 rpm for five minutes and were washed free of the unbound antibody-enzyme conjugate with four rinses with PBS plus Tween followed by three rinses with distilled water. […] The reaction was stopped with the addition of 0.2 mL of M sodium hydroxide, and the absorbance at 400 nm was measured.

[3] = tested on: demineralized bone matrix particles; experiment: Bone differentiation of AGE-modified demineralized bone matrix implanted in rats; format: in vivo, rat
Description: In order to assess the possible role of hyperglycemia-induced matrix modifications in this process, demineralized bone matrix particles from 35 week old normal Long-Evans rats were prepared. Matrix is incubated in phosphate buffered saline alone (PBS), PBS containing various sugar precursors of AGE (PBS−G), and PBS with sugars plus the AGE-inhibitor aminoguanidine (PBS−G+AG). After incubation, the matrix is washed and implanted subcutaneously in normal rats. Twelve days after implantation, ^45CaCl2 is injected to determine implant mineralization, and alkaline phosphatase activity is measured to assess osteoblast function. Duplicate specimens are fixed, embedded and stained for histologic evaluation.

histamine = details: in vivo; cited from earlier work

In the case of `N=C(N)NN` [aminoguanidine hydrochloride], the “diabetes-induced increase in laminin mRNA in the kidney” value (Laminin B1 mRNA) is listed as “prevents the diabetes-induced increase in laminin MRNA in the kidney”, the “amount of protein trapping (radiolabeled albumin bound to collagen beads)” value (gelatin (collagen)) is listed as “greatly reduced” and the “LIPOPROTEIN BOUND PER MG COLLAGEN” value (normal and diabetic rats [1]; diabetic rats) is listed as 0.64. The “LIPOPROTEIN BOUND PER MG COLLAGEN” value (normal and diabetic rats [1]; normal rats) was 0.53, the “IgG bound to glomerular basement membranes” value (normal and diabetic rats [2]; diabetic rats) was “the same low level of IgG in normal animals” and the “IgG bound to glomerular basement membranes” value (normal and diabetic rats [2]; normal rats) was “about the same low level”. The bone differentiation ([3]; matrix incubated with AGE precursor plus aminoguanidine, implanted subcutaneously, 12 days) was 80 % of control, the “matrix AGE content (specific fluorescence)” value ([3]; simultaneous incubation of matrix with AGE precursor and aminoguanidine) was “reduced fluorescence to normal” and the levels of histamine (histamine) was “increase levels of histamine”.
